Measurements: ChEMBL document CHEMBL4392845, “Structure-activity relationship study of estrogen receptor down-regulators with a diphenylmethane skeleton” (Bioorg Med Chem, 2019)

Biological target: T1, Estrogen receptor (Homo sapiens, UniProt P03372)
T1 sequence (P03372 whole entry): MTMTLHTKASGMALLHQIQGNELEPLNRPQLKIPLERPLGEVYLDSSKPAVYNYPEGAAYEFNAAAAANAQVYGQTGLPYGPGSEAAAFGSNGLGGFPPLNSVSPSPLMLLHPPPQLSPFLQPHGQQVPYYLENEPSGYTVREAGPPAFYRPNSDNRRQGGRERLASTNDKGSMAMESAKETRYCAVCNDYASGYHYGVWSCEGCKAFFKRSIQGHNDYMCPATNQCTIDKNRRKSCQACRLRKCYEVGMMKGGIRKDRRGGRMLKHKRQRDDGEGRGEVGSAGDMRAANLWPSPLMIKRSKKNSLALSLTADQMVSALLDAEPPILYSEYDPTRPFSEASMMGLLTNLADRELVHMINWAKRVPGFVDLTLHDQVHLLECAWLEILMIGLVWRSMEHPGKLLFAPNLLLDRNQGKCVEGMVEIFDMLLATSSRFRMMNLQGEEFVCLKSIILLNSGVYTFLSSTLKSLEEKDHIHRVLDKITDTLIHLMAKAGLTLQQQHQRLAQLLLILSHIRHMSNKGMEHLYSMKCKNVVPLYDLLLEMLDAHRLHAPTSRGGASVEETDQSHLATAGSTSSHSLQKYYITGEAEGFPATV
Assay: Agonist activity at FLAG-tagged ERalpha (unknown origin) expressed in HEK293 cells assessed as induction of ER-alpha-mediated transcriptional activity by luciferase reporter gene assay
Format: cell-based
Settings: not given; call rule not given here

Row | EC50 | SMILES
1 | 20 nM | CCCC(CCC)(c1ccc(O)c(C)c1)c1ccc(N(C)C)c(C)c1
2 | > 10000 nM | Cc1cc(Cc2ccc(O)c(C)c2)ccc1O
3 | 1.3 nM | CCCC(CCC)(c1ccc(N)c(C)c1)c1ccc(O)c(C)c1

Biological target: T1, Estrogen receptor
Settings: not given

Row | IC50 | SMILES
4 | 90 nM | CCCC(CCC)(c1ccc(O)c(C)c1)c1ccc(OCC(=O)OC(C)C)c(C)c1
5 | 1.4 nM | CCC(CC)(c1ccc(O)c(C)c1)c1ccc(O)c(C)c1
6 | 52 nM | CCCC(CCC)(c1ccc(O)c(C)c1)c1ccc(OCCN(C)C)c(C)c1
7 | 37 nM | CCCC(CCC)(c1ccc(O)c(C)c1)c1ccc(/C=C/C(=O)O)c(C)c1
8 | 26 nM | CCCCC(CCCC)(c1ccc(O)c(C)c1)c1ccc(O)c(C)c1
9 | 77 nM | CCCC(CCC)(c1ccc(O)c(C)c1)c1ccc(N(C)C)c(C)c1
10 | 7.5 nM | CCCC(CCC)(c1ccc(O)c(C)c1)c1ccc(NC)c(C)c1
11 | 100 nM | CCCCC(CCCC)(c1ccc(O)cc1)c1ccc(O)cc1
12 | 99 nM | CCCC(CCC)(c1ccc(O)c(C)c1)c1ccc(OCC(=O)N(C)C)c(C)c1
13 | 0.06 nM | CCC(=C(c1ccc(O)cc1)c1ccc(O)cc1)c1ccccc1
14 | 43 nM | CCCC(CCC)(c1ccc(O)c(C)c1)c1ccc(OCC(=O)NC)c(C)c1
15 | 160 nM | CCCC(CCC)(c1ccc(O)c(C)c1)c1ccc(OCCC(C)C)c(C)c1
16 | 22 nM | CCCC(CCC)(c1ccc(O)c(C)c1)c1ccc(OCC(=O)OCC)c(C)c1
17 | 790 nM | Cc1cc(Cc2ccc(O)c(C)c2)ccc1O
18 | 5.9 nM | CCCC(CCC)(c1ccc(O)cc1)c1ccc(O)cc1
19 | 1.3 to 3.2 nM | CCCC(CCC)(c1ccc(O)c(C)c1)c1ccc(O)c(C)c1
20 | 280 nM | CCc1cc(C(CC)(CC)c2ccc(O)c(CC)c2)ccc1O
21 | 354 nM | CCCC(CCC)(c1ccc(O)c(C)c1)c1ccc(NC(C)=O)c(C)c1
22 | 1.7 nM | CCCC(CCC)(c1ccc(N)c(C)c1)c1ccc(O)c(C)c1
23 | 303 nM | CCCC(CCC)(c1ccc(O)c(C)c1)c1ccc(/C=C/C(=O)OCC)c(C)c1
24 | 1280 nM | CCCC(CCC)(c1ccc(O)c(CC)c1)c1ccc(O)c(CC)c1

Row | SMILES | IC50
25 | CCC(CC)(c1ccc(O)cc1)c1ccc(O)cc1 | 24 nM
26 | Oc1ccc(Cc2ccc(O)cc2)cc1 | 1430 nM

Biological target: T1, Estrogen receptor
Settings: not given
Remark: another data set of the same source

Row | IC50 | SMILES
27 | 99 nM | CCCC(CCC)(c1ccc(O)c(C)c1)c1ccc(OCC(=O)OC(C)C)c(C)c1
28 | 36 nM | CCCC(CCC)(c1ccc(O)c(C)c1)c1ccc(OCCN(C)C)c(C)c1
29 | 522 nM | CCCC(CCC)(c1ccc(O)c(C)c1)c1ccc(/C=C/C(=O)O)c(C)c1
30 | 213 nM | CCCC(CCC)(c1ccc(O)c(C)c1)c1ccc(N(C)C)c(C)c1
31 | 207 nM | CCCC(CCC)(c1ccc(O)c(C)c1)c1ccc(NC)c(C)c1
32 | 94 nM | CCCC(CCC)(c1ccc(O)c(C)c1)c1ccc(OCC(=O)N(C)C)c(C)c1
33 | 3.3 nM | CCC(=C(c1ccc(O)cc1)c1ccc(O)cc1)c1ccccc1
34 | 31 nM | CCCC(CCC)(c1ccc(O)c(C)c1)c1ccc(OCC(=O)NC)c(C)c1
35 | 1200 nM | CCCC(CCC)(c1ccc(O)c(C)c1)c1ccc(OCCC(C)C)c(C)c1
36 | 44 nM | CCCC(CCC)(c1ccc(O)c(C)c1)c1ccc(OCC(=O)OCC)c(C)c1
37 | > 10000 nM | Cc1cc(Cc2ccc(O)c(C)c2)ccc1O
38 | 213 nM | CCCC(CCC)(c1ccc(O)c(C)c1)c1ccc(NC(C)=O)c(C)c1
39 | 8.1 nM | CCCC(CCC)(c1ccc(N)c(C)c1)c1ccc(O)c(C)c1
40 | 561 nM | CCCC(CCC)(c1ccc(O)c(C)c1)c1ccc(/C=C/C(=O)OCC)c(C)c1

Row | SMILES | IC50
41 | Oc1ccc(Cc2ccc(O)cc2)cc1 | > 10000 nM

Biological target: T1, Estrogen receptor
Settings: not given
Remark: another data set of the same source

Row | EC50 | SMILES
42 | 116 nM | CCCC(CCC)(c1ccc(O)c(C)c1)c1ccc(OCC(=O)OC(C)C)c(C)c1
43 | 28 nM | CCC(CC)(c1ccc(O)c(C)c1)c1ccc(O)c(C)c1
44 | 437 nM | CCCC(CCC)(c1ccc(O)c(C)c1)c1ccc(/C=C/C(=O)O)c(C)c1
45 | 88 nM | CCCCC(CCCC)(c1ccc(O)c(C)c1)c1ccc(O)c(C)c1
46 | 80 nM | CCCC(CCC)(c1ccc(O)c(C)c1)c1ccc(N(C)C)c(C)c1
47 | 545 nM | CCCC(CCC)(c1ccc(O)c(C)c1)c1ccc(NC)c(C)c1
48 | 606 nM | CCCCC(CCCC)(c1ccc(O)cc1)c1ccc(O)cc1
49 | 204 nM | CCCC(CCC)(c1ccc(O)c(C)c1)c1ccc(OCC(=O)N(C)C)c(C)c1
50 | 1 nM | CCC(=C(c1ccc(O)cc1)c1ccc(O)cc1)c1ccccc1
51 | 104 nM | CCCC(CCC)(c1ccc(O)c(C)c1)c1ccc(OCC(=O)NC)c(C)c1
52 | 427 nM | CCCC(CCC)(c1ccc(O)c(C)c1)c1ccc(OCCC(C)C)c(C)c1
53 | 93 nM | CCCC(CCC)(c1ccc(O)c(C)c1)c1ccc(OCC(=O)OCC)c(C)c1
54 | > 10000 nM | Cc1cc(Cc2ccc(O)c(C)c2)ccc1O
55 | 65 nM | CCCC(CCC)(c1ccc(O)cc1)c1ccc(O)cc1
56 | 10 nM | CCCC(CCC)(c1ccc(O)c(C)c1)c1ccc(O)c(C)c1
57 | 729 nM | CCc1cc(C(CC)(CC)c2ccc(O)c(CC)c2)ccc1O
58 | > 10000 nM | CCCC(CCC)(c1ccc(O)c(C)c1)c1ccc(NC(C)=O)c(C)c1
59 | 9 nM | CCCC(CCC)(c1ccc(N)c(C)c1)c1ccc(O)c(C)c1
60 | 193 nM | CCCC(CCC)(c1ccc(O)c(C)c1)c1ccc(/C=C/C(=O)OCC)c(C)c1
61 | > 10000 nM | CCCC(CCC)(c1ccc(O)c(CC)c1)c1ccc(O)c(CC)c1

Row | SMILES | EC50
62 | CCC(CC)(c1ccc(O)cc1)c1ccc(O)cc1 | 181 nM
63 | Oc1ccc(Cc2ccc(O)cc2)cc1 | > 10000 nM

Biological target: T1, Estrogen receptor
Settings: hek293
Description: Selective estrogen receptor down-regulator activity at FLAG-tagged ERalpha (unknown origin) expressed in HEK293 cells assessed as induction of ERalpha degradation by luciferase reporter gene assay

Row | EC50 | SMILES
64 | Not Active | CCCC(CCC)(c1ccc(O)c(C)c1)c1ccc(OCCN(C)C)c(C)c1
